These results are taken from paper PMC11843613, “Further Optimization of the mGlu1 PAM VU6024578/BI02982816: Discovery and Characterization of VU6033685” (ACS Chemical Neuroscience, 2025).

Molecules are shown by their SMILES. pEC50: −log10 of the molar value.

Data set [1] is described as follows: Rat CNS penetration (brain:plasma). Type of data set: in vivo. The following applies: male, Sprague-Dawley, intraperitoneal, 10 mg/kg; for Kp at 0.25 h: brain and plasma, rat brain:plasma; for Kp uu at 0.25 h: rat, brain/plasma. On the procedure: In vivo DMPK experimental
Compounds were formulated as 10% tween 80 micro suspensions in sterile water at the concentration of 1 mg/ml and administered intraperitoneally to male Sprague- Dawley rats weighing 225 to 250 g (Harlan, Inc., Indianapolis, IN) at the dose of 10 mg/kg. The rat blood and brain were collected at 0.25 hr. Animals were euthanized and decapitated, and the brains were removed, thoroughly washed in cold phosphate buffered saline and immediately frozen on dry ice.
Trunk blood was collected in EDTA Vacutainer tubes, and plasma was separated by centrifugation and stored at -80°C until analysis. Plasma was separated by centrifugation (4000 rcf, 4°C) and stored at […] until analysis. On the day of analysis, frozen whole-rat brains were weighed and diluted with 1:3 (w/w) parts of 70:30 isopropanol:water. The mixture was then subjected to mechanical homogenation employing a Mini-Beadbeater™ and 1.0 mm Zirconia/Silica Beads (BioSpec Products) followed by centrifugation. The sample extraction of plasma (20 μL) or brain homogenate (20 μL) was performed by a method based on protein precipitation using three volumes of ice-cold acetonitrile containing an internal standard (50 ng/mL carbamazepine). The samples were centrifuged (3000 rcf, 5 min) and supernatants transferred and diluted 1:1 (supernatant: water) into a new 96 well plate, which was then sealed in preparation for LC/MS/MS […]
In vivo samples were analyzed via electrospray ionization (ESI) on an AB Sciex API-5500 QTrap (Foster City, CA) instrument that was coupled with Shimadzu LC-20AD pumps (Columbia, MD) and a Leap Technologies CTC PAL auto-sampler (Carrboro, NC). Analytes were separated by gradient elution using a Fortis C18 3.0 x 50 mm, 3 µm column (Fortis Technologies Ltd, Cheshire, UK) thermostated at 40°C. HPLC mobile phase A was 0.1% formic acid in water (pH unadjusted), mobile phase B was 0.1% formic acid in acetonitrile (pH unadjusted). The gradient started at 30% […]
min and returned to 30% B in 0.1 min followed by a re-equilibration (0.9 min). The total run time was 2.5 min and the HPLC flow rate was 0.5 mL/min. The source temperature was set at 500°C and mass spectral analyses were performed using multiple reaction monitoring (MRM), with transitions specific for each compound utilizing a Turbo-Ionspray® source in positive ionization […]
mode (5.0 kV spray voltage). The calibration curves were constructed in blank plasma. All data were analyzed using AB Sciex Analyst software v1.5.1.
All animal study procedures were approved by the Institutional Animal Care and Use Committee and were conducted in accordance with the National Institutes of Health regulations of animal care covered in Principles of Laboratory Animal Care (National Institutes of Health). […]
GraphPad Prism (version 4.03, GraphPad, La Jolla, CA). […]

A short description of data set [2]: Predicted hepatic clearance from hepatic microsomes (human). It counts as in vitro ADME. As for the experimental part: Intrinsic clearance: Human or rat hepatic microsomes (0.5 mg/mL) and 1 µM test compound were incubated in 100 mM potassium phosphate pH 7.4 buffer with 3 mM MgCl2 at 37°C with constant shaking.
After a 5 min preincubation, the reaction was initiated by addition of NADPH (1 mM). At selected time intervals (0, 3, 7, 15, 25, and 45 min), aliquots were taken and subsequently placed into a 96-well plate containing cold acetonitrile with internal standard (50 ng/mL carbamazepine). Plates were then centrifuged at 3000 rcf (4° C) for 10 min, and the supernatant was transferred to a separate 96-well plate and diluted 1:1 with water for LC/MS/MS analysis. The in vitro half-life (T 1/2, min, Eq. 1), intrinsic clearance (CLint, mL/min/kg, Eq. 2) and subsequent predicted hepatic clearance (CLhep, mL/min/kg, Eq. 3) was determined […]
employing the following equations: […]
where k represents the slope from linear regression analysis of the natural log percent remaining of test compound as a function of incubation time
0.693 mL incubation 45 mg microsomes 20a gram liver
(2) CLint = in vitroT x mg microsomes x gram liver x kg body wt […]
ascale-up factors: of 20 (human) or 45 (rat) […]
where Qh (hepatic blood flow, mL/min/kg) is 21 (human) or 70 (rat).
LC/MS/MS Bioanalysis of Samples from Plasma Protein Binding and Intrinsic Clearance Assays. Samples were analyzed on a Thermo Electron TSQ Quantum Ultra triple quad mass spectrometer (San Jose, CA) via electrospray ionization (ESI) with two Themo Electron Accella pumps (San Jose, CA), and a Leap Technologies CTC PAL autosampler (Carrboro, NC). Analytes were separated by gradient elution on a dual column system with two Thermo Hypersil Gold (2.1 x 30 mm, 1.9 µm) columns (San Jose, CA) thermostated at 40°C. HPLC mobile phase A was 0.1% formic acid in water and mobile phase B was 0.1% formic acid in acetonitrile. The gradient […]
95% B for 0.2 min; returned to 10% B in 0.1 min. The total run time was 1.3 min and the HPLC flow rate was 0.8 mL/min. While pump 1 ran the gradient method, pump 2 equilibrated the alternate column isocratically at 10% B. Compound optimization, data collection and […]

Data set [3] in a line: Unbound fraction in brain (rat). Type of data set: in vitro ADME. The following applies: read-out: fu brain (rat).
Another data set relates to h and r mGlu2-4,6-8. The experiment in a line: mGlu subtype selectivity. Type of data set: cell-based, human, rat. The following applies: Table 1.
The next data set has as its target T1, P-gp (Homo sapiens, UniProt P08183).
T1 construct: expressed in transfected cells; host or cells: MDCK-MDR1
The experiment in a line: MDCK-MDR1 efflux and permeability. Type of data set: in vitro ADME. The note with it: for Papp / efflux ratio: dog, MDCK-MDR1; for efflux ratio: read-out: P-gp, MDCK-MDR1 ER.

The Kp is the ratio of the level in a tissue or fluid to that in plasma or blood. By pEC50 is commonly meant the EC50 on a negative log10 scale, so that one unit is a factor of ten. For orientation: Papp means a coefficient for how fast a substance crosses the barrier. A lower Papp goes with poor permeation.

T1 sequence (P08183 whole entry): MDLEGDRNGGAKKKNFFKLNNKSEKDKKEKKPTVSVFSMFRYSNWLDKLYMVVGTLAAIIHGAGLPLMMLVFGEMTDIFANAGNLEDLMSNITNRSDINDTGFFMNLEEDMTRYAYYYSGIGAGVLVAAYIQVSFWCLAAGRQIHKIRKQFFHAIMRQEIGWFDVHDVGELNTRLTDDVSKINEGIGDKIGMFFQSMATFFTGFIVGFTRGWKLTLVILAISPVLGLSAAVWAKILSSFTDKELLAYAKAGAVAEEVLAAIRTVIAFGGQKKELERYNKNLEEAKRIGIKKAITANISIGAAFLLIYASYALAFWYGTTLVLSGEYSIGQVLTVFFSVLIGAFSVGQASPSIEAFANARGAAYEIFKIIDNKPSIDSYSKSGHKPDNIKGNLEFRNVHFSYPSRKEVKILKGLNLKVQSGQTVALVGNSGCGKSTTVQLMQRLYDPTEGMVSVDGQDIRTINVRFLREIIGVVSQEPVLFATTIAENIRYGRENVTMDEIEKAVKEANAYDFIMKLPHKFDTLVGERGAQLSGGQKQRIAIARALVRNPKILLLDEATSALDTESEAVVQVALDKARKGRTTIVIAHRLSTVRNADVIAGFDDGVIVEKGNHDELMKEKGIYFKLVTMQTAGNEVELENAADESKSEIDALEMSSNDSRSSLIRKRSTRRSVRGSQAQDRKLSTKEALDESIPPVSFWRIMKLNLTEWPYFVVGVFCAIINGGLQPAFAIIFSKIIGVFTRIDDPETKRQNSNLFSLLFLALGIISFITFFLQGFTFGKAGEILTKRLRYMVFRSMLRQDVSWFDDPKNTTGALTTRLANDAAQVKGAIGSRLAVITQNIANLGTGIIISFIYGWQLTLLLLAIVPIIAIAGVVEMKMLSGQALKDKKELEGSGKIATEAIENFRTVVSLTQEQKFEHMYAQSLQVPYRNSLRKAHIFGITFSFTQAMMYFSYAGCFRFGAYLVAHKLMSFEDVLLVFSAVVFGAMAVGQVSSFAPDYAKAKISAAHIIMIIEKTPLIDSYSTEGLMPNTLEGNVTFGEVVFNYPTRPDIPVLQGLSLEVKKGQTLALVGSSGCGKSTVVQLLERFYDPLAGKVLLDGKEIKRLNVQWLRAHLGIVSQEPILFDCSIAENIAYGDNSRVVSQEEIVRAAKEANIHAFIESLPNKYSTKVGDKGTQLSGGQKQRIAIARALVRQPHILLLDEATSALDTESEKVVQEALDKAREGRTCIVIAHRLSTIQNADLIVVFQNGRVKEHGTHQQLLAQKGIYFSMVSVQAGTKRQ

On to `Cn1nc(-c2ccnn2C)cc1CNC(=O)c1cc(-n2cccn2)ccc1Cl` [compound 5], for which, in data set [1], the Kp at 0.25 h stood at 0.3 and the Kp uu at 0.25 h came to 0.52. The “Predicted CLhep (h)” value in data set [2] is listed as 4.6 mL/min/kg. Moreover, in data set [3], the fraction unbound was 0.185.
`Cc1nc2c(F)cccc2cc1CNC(=O)c1cc(-n2cccn2)ccc1Cl` [compound 7]: the concentration ratio (Kp) at 0.25 h in data set [1] was found to be 0.98. Moreover, the “Predicted CLhep (h)” value in data set [2] was 13.3 mL/min/kg. For the same molecule, the fraction unbound in data set [3] was 0.04.
In data set [1], `Cc1nc(C2CC2)ccc1CNC(=O)c1cc(-n2cccn2)ccc1Cl` [compound 8] registered a concentration ratio (Kp) at 0.25 h of 1.8 and a Kp uu at 0.25 h of 1.2. Further, in the data set with h and r mGlu2-4,6-8, the negative-log EC50 (pEC50) is < 5.00. For the same molecule, at P-gp, the “P-gp, MDCK-MDR1 ER” value is recorded as 0.93; the apparent permeability (Papp) was determined as 42 ×10⁻⁶ cm/s; the efflux ratio is 0.93. Moreover, the “Predicted CLhep (h)” value in data set [2] is given as 9.9 mL/min/kg. In addition, the fraction unbound in data set [3] came to 0.062.
Take `Cc1nc2ccccc2cc1CNC(=O)c1cc(-n2cccn2)ccc1Cl` [compound 6]: on P-gp, the Papp is 39 ×10⁻⁶ cm/s and the efflux ratio was 0.5. Besides, in data set [2], the “Predicted CLhep (h)” value was 15.8 mL/min/kg. Also, in data set [3], the fraction unbound is 0.047.
For `Cn1cc(-c2cc(CNC(=O)c3cc(-c4ccco4)ccc3Cl)n(C)n2)cn1` [compound 4], in data set [1], the Kp at 0.25 h worked out at 0.89 and the Kp uu at 0.25 h is 0.98. Also, in data set [2], the “Predicted CLhep (h)” value was 15.1 mL/min/kg. For the same molecule, the fraction unbound in data set [3] is 0.044.
